Results reported in patent publication US7550613B2, “Compounds” (Pronova Biopharma Norge AS, priority 2005, dated 2009).

What was measured:
[1] = Effect of DHA derivatives on established metabolic syndrome and insulin resistance (Example 5b); type: in vivo, C57BL/6 mice
Procedure: In another experiment, PRB-2, PRB-5, and PRB-7 were tested in the same breed of animals. In this experiment, animals were initially fed high fat diet (the same as in the previous experiment 5a) for 8 weeks developing insulin resistance and the metabolic syndrome, and then given the PRBs. […] After a period of another two weeks the animals were given 1.5% of PRB-2, 5% and 1.5% of PRB-5, and 1.5% and 0.5% of PRB-7.

[2] = Histological analysis of tissue samples, liver fat (Example 5c); type: in vivo, C57BL/6 mice; conditions: eosin-hematoxylin; control animals fed high fat diet had fat liver
Text: Tissue samples from animals in the experiments with DHA derivatives was histologically analysed. After paraffination, tissue samples from liver, adipose tissue, skeletal muscle, pancreas, and kidney were stained with eosin-hematoxylin.

[3] = molecular target: T1, PPARγ (Homo sapiens, UniProt P37231); assay: Affinity testing in transfected cells (release of luciferase); type: cell-based; conditions: FIG. 8; 10 μM of PRBs
T1 construct: For full length PPAR transfection studies, each well received 5 μg reporter construct; expressed in transfected cells; host or cells: COS-1 cells
T1 sequence (P37231 1-505): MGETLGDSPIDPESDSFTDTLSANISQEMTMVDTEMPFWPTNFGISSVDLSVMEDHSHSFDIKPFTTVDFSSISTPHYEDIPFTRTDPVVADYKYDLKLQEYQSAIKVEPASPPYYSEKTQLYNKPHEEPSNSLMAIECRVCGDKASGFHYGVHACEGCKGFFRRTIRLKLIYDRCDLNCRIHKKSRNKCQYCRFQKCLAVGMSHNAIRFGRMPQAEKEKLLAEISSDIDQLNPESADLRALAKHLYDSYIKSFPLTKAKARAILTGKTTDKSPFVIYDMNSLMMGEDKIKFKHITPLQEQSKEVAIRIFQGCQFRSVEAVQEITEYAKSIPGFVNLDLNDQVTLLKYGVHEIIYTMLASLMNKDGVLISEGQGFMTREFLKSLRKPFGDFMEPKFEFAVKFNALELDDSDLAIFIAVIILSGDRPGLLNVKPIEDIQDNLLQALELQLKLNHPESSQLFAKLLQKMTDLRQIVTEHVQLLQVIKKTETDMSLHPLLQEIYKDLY
Procedure: Release of luciferase is correlated to transcription of genes. Binding of a ligand to a nuclear receptor such as PPARγ induces transcription of the respective gene thereby releasing luciferase. This technique therefore provides a measure of ligand affinity to the receptor as well as activation of the responsible gene.
Transient transfection of COS-1 cells was performed in 6-well plates as described by Graham and van der Eb (Graham). For full length PPAR transfection studies, each well received 5 μg reporter construct, 2.5 μg pSV-β-galactosidase as an internal control, 0.4 μg pSG5-PPARγ2. The cells were harvested after 72 h, and the luciferase activity was measured according to the protocol (Promega). The luciferase activity was normalised against β-galactosidase activity. The adipocytes were transfected at D11 of differentiation using 16 μl LipofectaminPlus reagent, 4 μl Lipofectamine (Life Technologies Inc.), 0.2 μg pSG5-PPARγ, and 100 ng pTK Renilla luciferase as control of transfection afficiency. […] The luciferase activities were measured as recommended by the manufacturer (Dual Luciferase assay, Promega). […]
Fatty acids (BRL or DHA) and PRBs (stock solutions) were solubilized to 0.1 M final concentration in DMSO. […] Luciferase activity was measured using a luminometer (TD-20/20 luminometer; Turner Designs, Sunnycvale, Calif.) and normalized against protein content.

Compound: CC/C=C\C/C=C\C/C=C\C/C=C\C/C=C\C/C=C\CC(SCC)C(=O)OCC (stereo not drawn) [PRB-7, α-tioethyl docosahexaenoic acid ethyl ester]
- plasma insulin ([1]; FIG. 15): some effects on the insulin concentration
- AUC blood glucose compared to the baseline values ([1]; FIG. 16, 1.5% of PRB-2): some effect but not to the same extent
- fat liver (liver steatosis), histology [2]: low degree of fat liver
- release of luciferase from transfected cells [3]: significantly higher release of luciferase
